Measurements published in publication PMC11858294, “Design, Synthesis and Biological Activity Study of γ-Aminobutyric Acid (GABA) Derivatives Containing Bridged Bicyclic Skeletons as BCAT1 Inhibitors” (Molecules, 2025).

What was measured:
67R cells = experiment: Cell proliferation assay (SRB), ASK120067-resistant 67R cells; type: cell-based, Human; details: 120 h, proliferation inhibition, mean ± SD (n = 3), cells with high BCAT1 expression
From the text: (§1) Subsequently, we evaluated the in vitro anti-proliferative activity of compounds 1, 2, 4 and 7 on the proliferation of both 67R and NCI-H1975 cells, using gabapentin as positive controls (Figure 3 and Table 2). These four compounds represented the potent BCAT1 inhibitors in the above enzymatic assay.
(§2) Cell culture and chemical reagents: Human NSCLC NCI-H1975 cells were purchased from American Type Culture Collection (ATCC, Manassas, VA, USA) and cultured in RPMI 1640 medium with 10% FBS in a cell incubator (37 °C, 5% CO2). ASK120067-resistant cells (67R) were constructed, cultured, and authenticated as described previously. Gabapentin (#T0702) was purchased from TargetMol (Boston, MA, USA).
(§3) A sulforodamine B (SRB) colorimetric assay was employed to detect the inhibitory effect of compounds on cell proliferation. Cells in the logarithmic growth phase were seeded into 96-well plates and cultured overnight. After incubation with the indicated compounds for 120 h, the culture medium was discarded. Then, 100 μL of 10% pre-cooled trichloroacetic acid (TCA) was added to each well to fix the cells at 4 °C for 1 h. The wells were then washed five times with distilled water. After drying, 100 μL of SRB dye (4 mg/mL SRB dissolved in 1% glacial acetic acid) was added to each well, and the cells were stained for 15 min at room temperature. After washing with 1% glacial acetic acid for five times, the plate was dried again. To dissolve the dye, 150 μL of 10 mM Tris solution was added to each well. The optical density (OD) was measured at 560 nm using a multi-well VersaMax spectrophotometer (Molecular Devices, Sunnyvale, CA, USA). The relative inhibition rate of the compounds on cell proliferation was calculated using the following formula: Inhibition rate (%) = [1 − (A560treated/A560control)] × 100%. The IC50 values were determined from the dose–response curves using the logit method.

NCI-H1975 cells = experiment: Cell proliferation assay (SRB), NCI-H1975 cells; type: cell-based; details: Homo sapiens, proliferation inhibition, 120 h, mean ± SD (n = 3)
From the text: as §1, §2, §3

BCAT1 enzyme = target: T1, BCAT1 enzyme (Homo sapiens, UniProt P54687); experiment: BCAT1 enzyme inhibition assay (LeuDH-coupled, NADH fluorescence); type: biochemical
T1 construct: purchased Sino Biological ME17NO0265
T1 sequence (P54687 1-386): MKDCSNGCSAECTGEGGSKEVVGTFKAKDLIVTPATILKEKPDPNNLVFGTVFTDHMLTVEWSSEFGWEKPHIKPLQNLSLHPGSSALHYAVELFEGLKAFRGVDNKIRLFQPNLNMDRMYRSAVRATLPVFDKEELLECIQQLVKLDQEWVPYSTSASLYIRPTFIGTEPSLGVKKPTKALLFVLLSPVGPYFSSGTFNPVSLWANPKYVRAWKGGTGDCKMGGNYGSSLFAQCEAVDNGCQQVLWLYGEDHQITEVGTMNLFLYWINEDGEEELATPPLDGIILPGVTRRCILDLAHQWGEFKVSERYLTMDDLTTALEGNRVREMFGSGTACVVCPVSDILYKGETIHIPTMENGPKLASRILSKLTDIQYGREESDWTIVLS
Protocol: The inhibitory activity of the synthesized compounds against BCAT1 enzyme was screened by a known method, where leucine dehydrogenase (LeuDH) was utilized to catalyze the nicotinamide adenine dinucleotide (NADH)-dependent reduction of the BCAA α-ketoisocaproate (α-KIC) to leucine and NADH consumption was measured through fluorescence and luminescence readouts to assess BCAT1 activity.
The compounds to be tested or PBS was added to a 384-well plate, followed by the addition of assay buffer (50 mM ammonium sulfate, 1 mM EDTA, 2 mM DTT, 0.01% BSA, 0.5 μM PLP, 50 mM HEPES buffer (pH 7.4)), 0.01 U LeuDH enzyme (#E0217, Nanjing Duly Biotechnology Co., Ltd., Nanjing, China) and 15 ng BCAT1 enzyme (#ME17NO0265, Sino Biological, Beijing, China). Subsequently, 40 μM α-KG, 100 μM Leucine and 10 μM NADH substrate mixture were added to initiate the reaction. Fluorescence changes in NADH were dynamically monitored using the Spark cyto (Tecan, Männedorf, Switzerland). The rate of NADH fluorescence decay was calculated to assess enzyme activity.

BCAT1 = test system: BCAT1; set-up: method as in PMID 39791161; details: Figure 1; cited from earlier work
hBCAT1 = test system: hBCAT1; set-up: method as in PMID 39791161; details: Figure 1; cited from earlier work

Compound | IC50 (67R cells; Homo sapiens) [mM] | IC50 (NCI-H1975 cells) [mM] | IC50 (BCAT1 enzyme) [mM] | further results
NC[C@@]1(CC(=O)O)C[C@H]2C=C[C@@H]1C2 (relative stereo) [2•p-TsOH, 2-((1S*,2R*,4S*)-2-(Aminomethyl)bicyclo[2.2.1]hept-5-en-2-yl)acetic acid] | < 2 | 8.99 ± 0.67 | 2.04 ± 0.98 | IC50 (67R cells): 2.71 ± 0.33 mM
NC[C@]1(CC(=O)O)C[C@H]2C=C[C@@H]1C2 (relative stereo) [3•p-TsOH, 2-((1S*,2S*,4S*)-2-(Aminomethyl)bicyclo[2.2.1]hept-5-en-2-yl)acetic acid] | – | – | 3.96 ± 2.83 | –
NC[C@]1(CC(=O)O)C[C@H]2CCC[C@@H]1C2 (relative stereo) [5•HBr, 2-((1S*,5R*,6S*)-6-(Aminomethyl)bicyclo[3.2.1]octan-6-yl)acetic acid] | – | – | 4.2 ± 1.84 | –
NC[C@@]1(CC(=O)O)C[C@H]2CC=C[C@@H]1C2 (relative stereo) [7•p-TsOH, 2-((1S*,5S*,6R*)-6-(Aminomethyl)bicyclo[3.2.1]oct-3-en-6-yl)acetic acid] | < 2 | 7.26 ± 0.73 | 0.78 ± 0.19 | IC50 (67R cells): 1.64 ± 0.49 mM; enhancement in BCAT1 enzymatic inhibitory activity compared to the parent compound WQQ-345 (BCAT1 enzyme; ratio of IC50 values versus WQQ-345): 6 fold
NC[C@]1(CC(=O)O)C[C@H]2CCCC1CC2 (relative stereo) [8•HBr, 2-((1S*,6S*)-6-(Aminomethyl)bicyclo[3.2.2]nonan-6-yl)acetic acid] | – | – | 14.5 ± 6.39 | –
NC[C@@]1(CC(=O)O)C[C@H]2CC[C@@H]1C2 (relative stereo) [Compound 1, 2-((1R*,2R*,4S*)-2-(Aminomethyl)bicyclo[2.2.1]heptan-2-yl)acetic acid] | 2.6 ± 0.93 | 7.82 ± 0.48 | 2.04 ± 0.59 | –
NC[C@@]1(CC(=O)O)C[C@H]2CCC[C@@H]1C2 (relative stereo) [Compound 6, 2-((1S*,5R*,6R*)-6-(Aminomethyl)bicyclo[3.2.1]octan-6-yl)acetic acid] | – | – | 1.54 ± 0.47 | –
NCC1(CC(=O)O)CC2CCC1CC2 (stereo not drawn) [4•HBr, 2-((1R*,2S*,4R*)-2-(aminomethyl)bicyclo[2.2.2]octan-2-yl)acetic acid] | 1.38 ± 0.37 | 8.08 ± 0.96 | 1.71 ± 1 | –
Cc1ccccc1Oc1cc(-n2c(=O)cc(C(F)(F)F)[nH]c2=O)c2ccccc2c1Cl [BAY-069] | – | – | – | IC50 (BCAT1): 31 nM
CC(=O)C(C)CCC(=O)O (centres unmarked) [MOHA] | – | – | – | IC50 (hBCAT1): 0.001 to 0.01 mM
NC[C@]1(CC(=O)O)C[C@H]2CC[C@@H]1C2 [WQQ-345•HBr] | – | – | 4.86 ± 1.98 | –
NCC1(CC(=O)O)CCCCC1 [gabapentin, reference compound] | 3.53 ± 0.22 | > 10 | 5.07 ± 1.06 | Ki (hBCAT1): 3.5 mM
